Experimental data published in patent US9828375B2, “4-position substituted pyrazolopyrimidine derivative, and use thereof in drug preparation” (Guangxi Wuzhou Pharmaceuticals (Group) Co., Ltd., priority 2012, dated 2017).
pIC50: −log10 of the molar value.

Columns and labels:
[1] = test system: human cervical carcinoma cell line HELA; assay: In vitro tumor cell proliferation inhibition (MTT): HELA; assay type: cell-based; conditions: 72 hours
Source text: (§1) The purpose of the experiment was to test the inhibition activity of the compounds of the invention for in vitro human tumor cell proliferation by the methyl thiazolyl tetrazolium (MTT) colorimetry.
(§2) Main reagents: RPMI-1640, fetal bovine serum, pancreatin, etc. were purchased from Gibco BRL Company (Invitrogen Corporation, USA) and IMDM medium that was purchased from American Type Culture Collection (ATCC). Methyl thiazolyl tetrazolium (MTT) and dimethyl sulfoxide (DMSO) were products from Sigma Company (USA). Pyrazolopyrimidine derivatives were composed by the inventor. During in vitro experiment, 100% DMSO was prepared into 10 mM storage solution, the solution was stored in a refrigerator at −20° C. for future use, and was diluted to the required concentration with complete culture solution before use.
(§3) Cell line and culture: Human leukemia cell line MV4-11, Jurkat, K562, human thyrophyma cell line TT, human gastric carcinoma cell line MKN-45, human malignant melanoma cell lines A375 and A875, human pancreatic carcinoma cell line panc-1, human cervical carcinoma cell line HELA, human colorectal carcinoma cell line HCT116, etc. were purchased from American type culture collection and were preserved by this laboratory. All leukemia cell lines (except MV4-11), gastric carcinoma cell lines and thyrophyma cell lines were cultured in RPMI-1640 complete medium containing 10% fetal bovine serum, 100 U/mL penicillin and 100 μg/mL streptomycin at 37° C. in 5% CO2. The remaining cell lines were cultured in DMEM complete medium containing 10% fetal bovine serum (containing 20% MV4-11 cell), 100 U/mL penicillin and 100 µg/mL streptomycin at 37° C. in 5% CO2.
(§4) Cell suspension with cell concentration of 1-2×10^4/mL was adjusted with the complete cell medium and inoculated in a 96-well plate, with each well filled with 200 μl cell suspension that was cultured overnight. On the next day, supernatant was sucked and abandoned (supernatant was sucked upon centrifugation of suspension cells), and then cells were processed with test compounds at gradient concentrations respectively. Meanwhile, a negative control group free from drug and a solvent control group with equal volume were set, and the DMSO concentration was 0.1%. Each dose group was provided with three wells and cultured at 37° C. in 5% CO2. After 72 hours, 20 μl 5 mg/mL MTT reagent was added to each well, and cultured for another 2 to 4 hours, the supernatant was abandoned; 150 μL DMSO was added to each well again, vibrated and mixed evenly for 15 minutes; the absorbance (A) values (proportional to living cell amount) were determined with a microplate reader (λ=570 nm) and averaged. […] Experiment was repeated for 3 times at least. Experimental data were expressed with means, data statistics were tested by t, and P<0.05 means that difference has a statistical significance. The cell proliferation inhibition effects of all compounds as follows are expressed by IC50 or inhibition rate.

[2] = test system: human gastric carcinoma cell line MKN-45; assay: In vitro tumor cell proliferation inhibition (MTT): MKN-45; assay type: cell-based
Source text: as §1, §2, §3, §4

c-KIT = c-KIT (Homo sapiens, UniProt P10721); assay: Kinase inhibition activity test, isotope labeling: c-KIT; assay type: biochemical; conditions: for pIC50: ATP 200 μM, read-out: c-KIT IC50 value (inhibitory activity value)
Sequence of c-KIT (P10721 26-976): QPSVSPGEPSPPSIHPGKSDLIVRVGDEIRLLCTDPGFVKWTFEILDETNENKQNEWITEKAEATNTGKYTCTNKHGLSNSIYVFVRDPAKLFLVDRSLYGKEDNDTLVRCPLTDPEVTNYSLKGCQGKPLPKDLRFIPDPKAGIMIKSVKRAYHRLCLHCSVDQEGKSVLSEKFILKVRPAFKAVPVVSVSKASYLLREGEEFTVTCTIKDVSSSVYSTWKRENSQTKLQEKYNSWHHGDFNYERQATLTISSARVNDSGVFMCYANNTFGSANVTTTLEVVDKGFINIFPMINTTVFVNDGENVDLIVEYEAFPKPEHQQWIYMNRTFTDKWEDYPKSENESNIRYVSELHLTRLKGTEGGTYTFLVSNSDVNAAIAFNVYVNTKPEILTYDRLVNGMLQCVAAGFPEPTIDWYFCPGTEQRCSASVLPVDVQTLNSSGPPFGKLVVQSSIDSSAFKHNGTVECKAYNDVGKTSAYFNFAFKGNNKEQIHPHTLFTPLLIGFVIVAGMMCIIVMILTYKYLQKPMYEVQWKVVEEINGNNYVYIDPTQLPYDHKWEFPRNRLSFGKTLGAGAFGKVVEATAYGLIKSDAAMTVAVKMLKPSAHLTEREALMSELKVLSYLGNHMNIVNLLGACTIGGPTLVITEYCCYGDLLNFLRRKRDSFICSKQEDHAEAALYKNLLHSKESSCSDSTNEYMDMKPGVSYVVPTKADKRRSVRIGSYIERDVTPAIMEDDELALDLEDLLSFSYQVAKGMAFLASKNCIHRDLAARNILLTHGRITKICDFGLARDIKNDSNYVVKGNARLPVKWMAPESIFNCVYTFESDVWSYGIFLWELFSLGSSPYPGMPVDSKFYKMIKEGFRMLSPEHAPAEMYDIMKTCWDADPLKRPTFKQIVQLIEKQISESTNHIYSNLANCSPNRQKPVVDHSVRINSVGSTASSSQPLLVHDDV
Method: (§5) The purpose of this experiment was to test the inhibitory activity of the compound of the invention for in vitro kinase with the isotope labeling method (the γ phosphate group on ATP was labeled). In this experiment, the in vitro activity inhibition of such kinases as FLT3, VEGFR2, FLT1, FLT4, RET, c-RAF, B-RAF, c-KIT, PDGFα, PDGFβ, FGFR2, FGFR1, EphA2, EphB2, SRC, ABL, ALK and Met was tested respectively. Staurosporine was reference molecule (or referred to as positive control). The kinase inhibition activity of the test compound was expressed by half-inhibitory concentration (IC50) or the kinase activity inhibition rate of the test compound at a concentration of 10 μM. The IC50 value could be obtained by calculating the kinase activity inhibition rate of the test compound at different concentrations.
(§6) 20 mM 3-(N-morpholinyl)propanesulfonic acid (MOPS); 1 mM ethylenediaminetetraacetic acid (EDTA), 0.01% Brij 35 (Brij-35), 5% glycerol, 0.1% mercaptoethanol, 1 mg/mL bovine serum albumin (BSA), 10 mM manganous dichloride solution (MnCl2), 0.1 mg/mL glutamic acid/tyrosine (4:1) polypeptide (poly(Glu, Tyr)4:1), 50 μM EAIYAAPFAKKK (substrate of FLT3), 0.33 mg/mL myelin basic protein (substrate of VEGFR2), 250 μM KKKSPGEYVNIEFG (substrate of FLT1(h)), 500 μM GGEEEEYFELVKKKK (substrate of FLT4(h)), 250 μM KKKSPGEYVNIEFG (substrate of RET), 0.66 mg/mL myelin basic protein (substrate of C-RAF), 250 μM GGMEDIYFEFMGGKKK (substrate of c-Kit), 250 μM GGMEDIYFEFMGGKKK (substrate of PDGFα), 250 μM KKKSPGEYVNIEFG (substrate of FGFR1), […] GGEEEEYFELVKKKK (substrate of SRC), 50 μM EAIYAAPFAKKK (substrate of ABL), 250 μM KKKSPGEYVNIEFG (substrate of ALK), 250 μM KKKSPGEYVNIEFG (substrate of Met(h)), 10 mM magnesium acetate and γ-^33 P-ATP solution, stop buffer (3% phosphate buffer), washing buffer (75 mM phosphate solution), methanol, Filtermat A membrane, FLT3, VEGFR2, FLT3, VEGFR2, FLT1, FLT4, RET, c-RAF, B-RAF, c-KIT, PDGFRα, PDGFRβ, FGFR2, FGFR1, EphA2, EphB2, SRC, ABL, ALK, Met and other kinases, and the test compounds.
(§7) Buffers (8 mM MOPS with pH value of 7.0, 0.2 mM EDTA and 10 mM MnCl2), (5-10 mU) kinases to be tested (FLT3, VEGFR2, FLT1, FLT4, RET, c-RAF, B-RAF, c-KIT, PDGFRα, PDGFRβ, FGFR2, FGFR1, EphA2, EphB2, SRC, ABL, ALK and Met), substrates of kinases to be tested (refer to experimental materials), 10 mM magnesium acetate and γ-^33 P-ATP solution, and test compounds at different concentrations were added to a reaction tube orderly. […] Reaction was terminated with 5 μL 3% phosphate buffer finally, and 10 μL reaction solution was titrated to the Filtermat A membrane; solution was washed for 3 times with 75 mM phosphate solution with each time lasting 5 minutes, and then washed once with methanol. Finally, the Filtermat A membrane was dried, and scintillation counting was performed on the membrane, with scintillation count reflecting the phosphorylation degree of the substrates, so that the activity inhibition of kinase could be characterized.

FGFR2 = FGFR2 (Homo sapiens, UniProt P21802); assay: Kinase inhibition activity test, isotope labeling: FGFR2; assay type: biochemical; conditions: for Activity inhibition rate FGFR2 (h): test compound at a concentration of 10 μM; for pIC50: ATP 90 μM, read-out: FGFR2 IC50 value (inhibitory activity value)
Sequence of FGFR2 (P21802 22-821): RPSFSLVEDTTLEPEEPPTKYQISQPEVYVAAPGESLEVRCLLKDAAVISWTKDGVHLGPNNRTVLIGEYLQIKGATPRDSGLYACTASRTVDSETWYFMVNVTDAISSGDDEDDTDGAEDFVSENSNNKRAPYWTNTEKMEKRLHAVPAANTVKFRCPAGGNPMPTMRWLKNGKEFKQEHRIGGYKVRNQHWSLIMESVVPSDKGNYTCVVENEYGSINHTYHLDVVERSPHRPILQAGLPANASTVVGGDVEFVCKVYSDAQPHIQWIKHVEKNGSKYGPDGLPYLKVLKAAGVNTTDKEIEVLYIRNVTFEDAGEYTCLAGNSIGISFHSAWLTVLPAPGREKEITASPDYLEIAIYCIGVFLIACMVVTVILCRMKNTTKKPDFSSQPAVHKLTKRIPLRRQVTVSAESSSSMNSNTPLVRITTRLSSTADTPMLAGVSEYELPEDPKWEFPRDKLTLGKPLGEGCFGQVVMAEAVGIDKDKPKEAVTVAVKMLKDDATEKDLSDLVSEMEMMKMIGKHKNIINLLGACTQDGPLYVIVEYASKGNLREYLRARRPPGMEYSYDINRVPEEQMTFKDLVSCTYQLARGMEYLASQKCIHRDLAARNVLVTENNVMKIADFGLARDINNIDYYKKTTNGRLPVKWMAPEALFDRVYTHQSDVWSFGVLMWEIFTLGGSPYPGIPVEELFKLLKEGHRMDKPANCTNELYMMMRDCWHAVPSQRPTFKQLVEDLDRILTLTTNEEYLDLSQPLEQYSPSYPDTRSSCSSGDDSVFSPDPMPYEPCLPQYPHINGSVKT
Method: as §5, §6, §7

[3] = test system: human leukemia cell line K562; assay: In vitro tumor cell proliferation inhibition (MTT): K562; assay type: cell-based
Source text: as §1, §2, §3, §4

[4] = test system: human malignant melanoma cell line A875; assay: In vitro tumor cell proliferation inhibition (MTT): A875; assay type: cell-based
Source text: as §1, §2, §3, §4

[5] = test compound at a concentration of 10 μM

Molecule	pIC50 [1]	pIC50 ([2]; 72 hours)	Activity inhibition rate c-Kit (h) (c-KIT; [5])	Activity inhibition rate FGFR2 (h) (FGFR2)	pIC50 ([3]; 72 hours)	pIC50 ([4]; 72 hours)	pIC50 ([1]; Homo sapiens, HeLa)	pIC50 ([2]; Homo sapiens, MKN-45, 72 hours)	inhibition at 10 µM (c-KIT; test compound at a concentration of 10 μM, read-out: Activity inhibition rate c-Kit (h))	Activity inhibition rate FGFR2 (h) (FGFR2; 10 µM)	pIC50 ([3]; Homo sapiens, K562, 72 hours)	pIC50 ([4]; Homo sapiens, A875, 72 hours)	pIC50 (c-KIT)	pIC50 (FGFR2)
C[C@@H](NC(=O)Nc1ccc(Nc2ncnc3[nH]ncc23)cc1)c1ccccc1 [4b-2, (R)-1-(4-(1H-pyrazolopyrimidine-4-amido)phenyl)-3-(1-phenethyl)urea]							> 4.30	> 4.30	> 30%	66%	> 4.30	> 4.30		
C[C@@H](NC(=O)Nc1ccc(Oc2ncnc3[nH]ncc23)cc1)c1ccccc1 [4a-19, (R)-1-(4-((1H-pyrazolopyrimidine-4-yl)oxy)phenyl)-3-(1-phenethyl)urea]	> 4.30	> 4.30	93%	17%	> 4.30	> 4.30								
O=C(Nc1ccccc1)Nc1ccc(Oc2ncnc3[nH]ncc23)cc1 [4a-15, 1-(4-((1H-pyrazolopyrimidine-4-yl)oxy)phenyl)-3-phenylurea]	> 4.30	> 4.30	66%	100%	> 4.30	> 4.30								
O=C(Nc1ccc(Oc2ncnc3[nH]ncc23)cc1)Nc1ccc(Cl)c(C(F)(F)F)c1 [4a-2]	> 4.30	5.08	100%	80%	> 4.30	5.38							6.29	5.74
O=C(Nc1ccc(Oc2ncnc3[nH]ncc23)cc1)Nc1ccc(C(F)(F)F)cc1Cl [4a-13]	> 4.30	5.17	85%	13%	> 4.30	> 4.30								
O=C(Nc1ccc(Oc2ncnc3[nH]ncc23)c(F)c1)Nc1ccc(Cl)c(C(F)(F)F)c1 [4a-10, 1-(4-((1H-pyrazolopyrimidine-4-yl)oxy)-3-fluorophenyl)-3-(4-chloro-3-(trifluoromethyl)phenyl)urea]	> 4.30	5.28	49%	53%	> 4.30	> 4.30								
C[C@H](NC(=O)Nc1ccc(Nc2ncnc3[nH]ncc23)cc1)c1ccccc1 [4b-4]	> 4.30	> 4.30	>30%		> 4.30	> 4.30				32%				
O=C(Nc1ccc(Oc2ncnc3[nH]ncc23)cc1)Nc1cc(C(F)(F)F)cc(C(F)(F)F)c1 [4a-12, 1-(4-((1H-pyrazolopyrimidine-4-yl)oxy)phenyl)-3-(3,5-bis(trifluoromethyl)phenyl)urea]	> 4.30	5.08	58%	71%	5.04	> 4.30								

Continued, values first:

pIC50 [1]	pIC50 ([2]; 72 hours)	Activity inhibition rate c-Kit (h) (c-KIT; [5])	Activity inhibition rate FGFR2 (h) (FGFR2)	pIC50 ([3]; 72 hours)	pIC50 ([4]; 72 hours)	pIC50 ([1]; Homo sapiens, HeLa)	pIC50 ([2]; Homo sapiens, MKN-45, 72 hours)	inhibition at 10 µM (c-KIT; test compound at a concentration of 10 μM, read-out: Activity inhibition rate c-Kit (h))	Activity inhibition rate FGFR2 (h) (FGFR2; 10 µM)	pIC50 ([3]; Homo sapiens, K562, 72 hours)	pIC50 ([4]; Homo sapiens, A875, 72 hours)	pIC50 (c-KIT)	pIC50 (FGFR2)	Molecule
> 4.30	> 4.30	98%	51%	> 4.30	> 4.30									CC(C)c1cccc(NC(=O)Nc2ccc(Oc3ncnc4[nH]ncc34)c(F)c2)c1 [4a-7, 1-(4-((1H-pyrazolopyrimidine-4-yl)oxy)-3-fluorophenyl)-3-(3-isopropylphenyl)urea]
> 4.30	> 4.30	100%	22%	> 4.30	> 4.30									C[C@H](NC(=O)Nc1ccc(Oc2ncnc3[nH]ncc23)cc1)c1ccccc1 [4a-18, (S)-1-(4-((1H-pyrazolopyrimidine-4-yl)oxy)phenyl)-3-(1-phenethyl)urea]
> 4.30	> 4.30	98%	19%	> 4.30	> 4.30									1-(4-((1H-pyrazolopyrimidine-4-yl)oxy)phenyl)-3-(methylcyclohexyl)urea [4a-20]
5.00 to 5.52	5.89	>90%	>50%	5.00 to 5.52	5.00 to 5.52							6.04	> 5.00	CC(C)(C)c1cc(NC(=O)Nc2ccc(Oc3ncnc4[nH]ncc34)cc2)on1 [4a-25]
5.07	5.12	95%	6%	> 4.30	5.16									1-(4-((1H-pyrazolopyrimidine-4-yl)oxy)-3-fluorophenyl)-3-(3-trifluoromethoxy)phenyl)urea [4a-8]
